Results as given in the supplement of paper PMC8671470.
± gives the standard deviation of the averaged measurements.

Columns and labels:
Conditions in all cases: 72 h
HL-60 [1] = assay: area under dose-response curve (viability, 1 nM-10 uM) (fraction (0-1)); higher = more sensitive
In short: (§1)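 A rescreen of the full library used HL-60 cells in RPMI 1640 with 10% FBS on 384-well plates, run in duplicate at five tenfold concentrations (1–10,000 nM). Each screen included DMSO or 100 nM of one of three metabolic inhibitors and ran 72 h at 37 °C, 5% CO2. CellTiter-Glo viability was scaled between DMSO and 10 μM proteasome-inhibitor wells. Any area under the curve comes from four-parameter log-logistic fits with drc and PharmacoGx.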

SHI-1 [2] = assay: cell viability (% survival relative to DMSO control, bortezomib = 0%); higher = less cytotoxic
In short: (§2)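 Fifteen myeloid leukaemia cell lines (10 AML, 5 CML) were seeded at a density titrated to the linear growth range into 384-well plates pre-printed with compounds at 1, 10, 100, 1000 or 10000 nM in duplicate. Plates were incubated for 72 h at 37 °C with 5% CO2. Viability was then read by CellTiter-Glo luminescence. Each value is percent survival averaged over the duplicates, with vehicle set to 100% and a 10 µM positive control to 0%.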

KCL-22 [3] = assay: as above
In short: as §2

MV4-11 [4] = assay: as above
In short: as §2

Mono-Mac-6 [5] = assay: as above
In short: as §2

ML-2 [6] = assay: as above
In short: as §2

KG-1 [7] = assay: as above
In short: as §2

LAMA-84 [8] = assay: as above
In short: as §2

BV-173 [9] = assay: as above
In short: as §2

HL-60 [10] = assay: as above
In short: as §2

HEL [11] = assay: as above
In short: as §2

K-562 [12] = assay: as above
In short: as §2

HL-60 [13] = assay: cell viability (% survival relative to DMSO control); higher = less cytotoxic
In short: as §1

SHI-1 [14] = system: SHI-1
In short: (§3)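 Each of fifteen myeloid leukaemia cell lines was seeded in RPMI 1640 at a density titrated to its linear growth range. The cells were incubated for 72 h at 37 °C and 5% CO2 with compounds at five tenfold doses from 1 to 10,000 nM, in duplicate. After ATP luminescence was normalised to vehicle and to a positive control at 10 µM, four-parameter log-logistic curves were fitted. These curves gave the IC50.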

KCL-22 [15] = system: KCL-22
In short: as §3

MV4-11 [16] = system: MV4-11
In short: as §3

Mono-Mac-6 [17] = system: Mono-Mac-6
In short: as §3

KU-812 = system: KU-812
In short: as §3

ML-2 [18] = system: ML-2
In short: as §3

KG-1 [19] = system: KG-1
In short: as §3

MOLM-13 = system: MOLM-13
In short: as §3

LAMA-84 [20] = system: LAMA-84
In short: as §3

BV-173 [21] = system: BV-173
In short: as §3

HL-60 [22] = system: HL-60
In short: as §3

NOMO-1 = system: NOMO-1
In short: as §3

THP-1 = system: THP-1
In short: as §3

HEL [23] = system: HEL
In short: as §3

K-562 [24] = system: K-562
In short: as §3

N=C(N)c1ccc(N=NNc2ccc(C(=N)N)cc2)cc1 [Diminazene]
Conditions	area under dose-response curve, co-treatment: AZD3965 100 nM	area under dose-response curve, co-treatment: DMSO vehicle	area under dose-response curve, co-treatment: GSK2194069 100 nM	area under dose-response curve, co-treatment: pictilisib 100 nM	cell viability, 1 nM [%]	cell viability, 10 nM [%]	cell viability, 100 nM [%]	cell viability, 1000 nM [%]	cell viability, 10000 nM [%]
BV-173 [9]	–	–	–	–	104	103	106	106	103
HEL [11]	–	–	–	–	103	109	111	93.8	111
HL-60 [1]	< 0.0301	< 0.0301	< 0.0301	< 0.0301	–	–	–	–	–
HL-60 [10]	–	–	–	–	83	102	123	116	96.6
K-562 [12]	–	–	–	–	102	99.3	119	94.5	96.7
KCL-22 [3]	–	–	–	–	102	96.6	114	84.4	72.7
KG-1 [7]	–	–	–	–	115	109	114	97.7	88.9
LAMA-84 [8]	–	–	–	–	105	103	108	105	98.3
ML-2 [6]	–	–	–	–	104	98.7	100	106	93.7
MV4-11 [4]	–	–	–	–	113	100	94.6	92.2	77.9
Mono-Mac-6 [5]	–	–	–	–	97	100	107	105	98.2
SHI-1 [2]	–	–	–	–	100	102	116	95.3	95.8

cell viability [%], HL-60 [13]
Conditions	0.001 µM	0.01 µM	0.1 µM	1 µM	10 µM
co-treatment: AZD3965 100 nM	94.9 ± 10	98.5 ± 3.5	106 ± 4.5	93.1 ± 5.5	101 ± 8.5
co-treatment: DMSO vehicle	101.5 ± 0.37	100.7 ± 0.87	99.712 ± 0.039	101.22 ± 0.055	100.7 ± 0.46
co-treatment: GSK2194069 100 nM	99.7 ± 7.5	100 ± 4	105 ± 5.9	100.3 ± 0.82	101.5 ± 0.3
co-treatment: pictilisib 100 nM	83.5 ± 15	98 ± 3.4	107.8 ± 0.59	97.2 ± 1.2	104 ± 4.4

Conditions	IC50 (cell viability) [µM]
BV-173 [21]	> 10
HEL [23]	> 10
HL-60 [22]	> 10
K-562 [24]	> 10
KCL-22 [15]	> 10
KG-1 [19]	> 10
KU-812	> 10
LAMA-84 [20]	> 10
ML-2 [18]	> 10
MOLM-13	> 10
MV4-11 [16]	> 10
Mono-Mac-6 [17]	> 10
NOMO-1	> 10
SHI-1 [14]	> 10
THP-1	> 10
